The record followed here is patent publication US20240417428A1, “POLYPEPTIDE FOR INHIBITING TRPM8 AND USE THEREOF” (ZHEJIANG UNIVERSITY, priority 2021, published 2024).

One test addresses T1, TRPV3 (Homo sapiens, UniProt Q8NET8).
T1 construct: expressed in transfected cells; host or cells: HEK293T
T1 sequence (Q8NET8 1-790): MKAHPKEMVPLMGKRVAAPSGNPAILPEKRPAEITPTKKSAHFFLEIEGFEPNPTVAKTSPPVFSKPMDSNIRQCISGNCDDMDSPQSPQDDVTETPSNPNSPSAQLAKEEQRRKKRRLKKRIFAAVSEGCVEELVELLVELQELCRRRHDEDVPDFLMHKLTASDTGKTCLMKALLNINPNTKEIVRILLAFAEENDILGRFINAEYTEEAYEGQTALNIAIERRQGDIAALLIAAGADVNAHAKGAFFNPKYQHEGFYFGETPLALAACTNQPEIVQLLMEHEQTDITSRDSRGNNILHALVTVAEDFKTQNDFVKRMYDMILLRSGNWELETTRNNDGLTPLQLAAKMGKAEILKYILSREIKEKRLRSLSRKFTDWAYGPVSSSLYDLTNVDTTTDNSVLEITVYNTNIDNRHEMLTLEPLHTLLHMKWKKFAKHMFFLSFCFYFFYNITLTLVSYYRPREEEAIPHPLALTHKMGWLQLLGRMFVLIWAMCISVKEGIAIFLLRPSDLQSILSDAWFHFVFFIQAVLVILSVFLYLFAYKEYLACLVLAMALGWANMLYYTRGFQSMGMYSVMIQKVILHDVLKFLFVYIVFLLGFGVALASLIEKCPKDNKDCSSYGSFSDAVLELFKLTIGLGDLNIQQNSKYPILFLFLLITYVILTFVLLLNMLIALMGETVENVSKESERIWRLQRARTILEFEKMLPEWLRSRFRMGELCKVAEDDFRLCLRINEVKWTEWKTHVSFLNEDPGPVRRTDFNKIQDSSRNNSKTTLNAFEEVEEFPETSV
The test can be described thus: Electrophysiological recording, ligand activation of TRPV3. It counts as cell-based. The procedure:
(§1) HEK293T cells were cultured in Dulbecco's modified Eagle culture medium under a 37° C., 5% CO2 environment, 10% fetal bovine serum, penicillin (100 U/mL), and streptomycin ([…]) was needed to add into the culture medium. Transient transfection was conducted by using Lipo 2000 (Invitrogen) transfection kit and following the instruction manual.
(§2) Electrophysiological experiment recordings were performed on the cells within 24˜48 h of transient transfections. Specifically, single channel electrophysiological recordings were performed within 8 h after transfection.
(§3) Measurement of the cell currents was respectively performed in the whole-cell recording mode, inside-out recording mode or outside-out recording mode with a HEKA EPC10 amplifier. In the whole cell electrophysiological recordings, glass microelectrodes made of borosilicate material were fire-polished to a original electrode resistance of about 3-6 MΩ. Serial resistance was compensated by 60%. The whole cell electrophysiological recordings were performed at ±80 mV. For single channel electrophysiological recordings, glass microelectrodes were fire-polished to a higher resistance of 6-8 MΩ2. Current signal was sampled at 10 kHz and filtered at 2.9 kHz. Membrane potential of the cell membrane would be clamped at +80 mV. All electrophysiological recordings were performed at room temperature (22° C.) (the maximum variation is 1° C.). […]

The target in another test is T2, TRPA1 (Homo sapiens, UniProt O75762).
T2 construct: expressed in transfected cells; host or cells: HEK293T
Put plainly: Electrophysiological recording of TRPA1. Type of test: cell-based. On the procedure: as §1, §2, §3

The subject of test [1] is Icilin-induced wet-dog shake behavior. The test can be described thus: Icilin-induced wet-dog shake test. It counts as in vivo, mice. The procedure:
Adult male CD1 mice (6-8 weeks old) were used as experimental animals for behavioral experiments and primary cultures of DRG neurons. Mice were raised in the condition of 12 h light/12 h dark of light cycle with adequate standard chow and water. All animal protocols were approved by the Institutional Animal Care and Use Committee (IACUC) of Zhejiang University.
At least 6 adult male CD1 mice were prepared for experimental or control groups. The animals were pretreated with Vehicle or DeC-1.2 of gradient dose via intravenous injection (i.v.) at 30 min before icilin (intraperitoneal injection, i.p., 2.5 μg/g body weight) treatment. Wet dog shake behavior was recorded and counted for 30 min following icilin administration.

For orientation: IC50 means the concentration that inhibits the measured activity by half. Read a low IC50 as greater potency in that assay.

Entries after “also recorded” stand apart in the source; their conditions may differ. Where a SMILES comes first, the peptide text is derived from it.

T2 sequence (O75762 whole entry, species assumed): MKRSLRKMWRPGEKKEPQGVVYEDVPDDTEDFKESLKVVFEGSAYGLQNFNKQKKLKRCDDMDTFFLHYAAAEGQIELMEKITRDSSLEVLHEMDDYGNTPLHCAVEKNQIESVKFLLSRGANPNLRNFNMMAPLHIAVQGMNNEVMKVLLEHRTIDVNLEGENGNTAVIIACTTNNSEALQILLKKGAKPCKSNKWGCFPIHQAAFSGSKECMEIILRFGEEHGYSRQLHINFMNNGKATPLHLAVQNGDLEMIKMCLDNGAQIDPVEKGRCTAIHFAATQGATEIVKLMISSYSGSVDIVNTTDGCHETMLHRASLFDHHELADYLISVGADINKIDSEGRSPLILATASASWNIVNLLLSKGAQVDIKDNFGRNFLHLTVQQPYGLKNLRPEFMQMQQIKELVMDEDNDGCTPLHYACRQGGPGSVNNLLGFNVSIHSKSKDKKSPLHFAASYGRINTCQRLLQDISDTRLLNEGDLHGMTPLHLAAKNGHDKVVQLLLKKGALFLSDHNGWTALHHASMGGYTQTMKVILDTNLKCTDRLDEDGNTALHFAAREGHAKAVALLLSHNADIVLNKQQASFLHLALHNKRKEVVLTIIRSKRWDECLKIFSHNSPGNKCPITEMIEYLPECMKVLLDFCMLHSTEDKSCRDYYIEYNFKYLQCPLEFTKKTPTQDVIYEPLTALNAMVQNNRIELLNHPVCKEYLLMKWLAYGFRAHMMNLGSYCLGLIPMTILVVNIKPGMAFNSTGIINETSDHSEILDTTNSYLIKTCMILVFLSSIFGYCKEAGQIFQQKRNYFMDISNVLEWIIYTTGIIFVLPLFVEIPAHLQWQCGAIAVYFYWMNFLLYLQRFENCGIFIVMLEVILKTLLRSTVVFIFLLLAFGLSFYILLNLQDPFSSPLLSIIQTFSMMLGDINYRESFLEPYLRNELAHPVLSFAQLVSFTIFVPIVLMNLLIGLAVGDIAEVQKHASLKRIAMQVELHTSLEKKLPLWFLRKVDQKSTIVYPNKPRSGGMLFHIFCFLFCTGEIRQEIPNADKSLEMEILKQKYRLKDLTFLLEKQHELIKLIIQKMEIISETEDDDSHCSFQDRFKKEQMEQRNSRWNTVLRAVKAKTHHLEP

Consider `C[C@@H]1NC(=O)[C@H](CCCNC(=N)N)NC(=O)[C@H](CC(=O)O)NC(=O)[C@H](CCCNC(=N)N)NC(=O)[C@H](CCCNC(=N)N)NC(=O)[C@@H](N)CSSC[C@@H](C(=O)O)NC(=O)[C@H](CCCNC(=N)N)NC(=O)[C@H](CCC(N)=O)NC(=O)[C@H](CCCNC(=N)N)NC(=O)[C@H](Cc2ccc(O)cc2)NC(=O)[C@H](Cc2c[nH]cn2)NC(=O)[C@H](CCCNC(=N)N)NC1=O` [DeC-1.2, CRRDRARHYRQRC] (HELM PEPTIDE1{C.R.R.D.R.A.R.H.Y.R.Q.R.C}$PEPTIDE1,PEPTIDE1,1:R3-13:R3$$$V2.0; N-terminus and C-terminus assumed), for which the IC50 on TRPV3 was > 100 µM. Also, on TRPV3 (DeC-1.2 5 μM), the “inhibition of ligand activation of TRPV3” value is on record as “failed to inhibit”. At TRPA1, the half-inhibitory concentration (IC50) was > 100 µM; the “inhibition of TRPA1” value is “none of the TRP channels and Nav channels were inhibited”. In addition, the “inhibition of WSD behaviors induced by icilin” value in test [1] (0.3 μg/g body weight i.v., 30 min before icilin) was “significantly inhibit”. Also, in test [1] (30 μg/g body weight i.v.), the “reduction of WDS behavior in icilin treated mice” value was “largely reduce WDS behavior”. Further, the “dose dependence of inhibition of icilin-induced wet-dog shakes” value in test [1] (gradient dose i.v.) was “dose-dependently significantly reduces; also recorded: significantly dose-dependent”.
